From patent US10370401B2, “Substituted nucleosides, nucleotides and analogs thereof” (Alios BioPharma, Inc., priority 2013, dated 2019)
Where two headings read alike, the source gives them in different places.

Key:
subgenomic HCV replicon = experiment: HCV replicon assay (Huh-7, luciferase reporter); type: cell-based; conditions: Hepatitis C virus
Human rhinovirus 1B = experiment: Picornavirus assay (CPE, CellTiter-Glo, HeLa-OHIO cells); type: cell-based; conditions: Rhinovirus A, 96 h
[1] = molecular target: dengue virus NS5 polymerase domain (DENVpol, serotype 2, New Guinea C strain) (Dengue virus type 2, UniProt P14340); experiment: Dengue virus polymerase inhibition assay; type: biochemical; conditions: DENVpol serotype 2, 3 hours at 30° C., mean of several independent experiments
Method: The enzyme activity of dengue virus NS5 polymerase domain (DENVpol, serotype 2, New Guinea C strain) was measured as an incorporation of tritiated NMP into acid-insoluble RNA products. DENVpol assay reactions contained 100 nM recombinant enzyme, 50 nM heteropolymeric RNA, about 0.5 μCi tritiated NTP, 0.33 μM of competing cold NTP, 40 mM HEPES (pH 7.5), 3 mM dithiothreitol, and 2 mM MgCl2. Standard reactions were incubated for 3 hours at 30° C., in the presence of increasing concentration of inhibitor. At the end of the reaction, RNA was precipitated with 10% TCA, and acid-insoluble RNA products were filtered on a size exclusion 96-well plate. After washing of the plate, scintillation liquid was added and radiolabeled RNA products were detected according to standard procedures with a Trilux Topcount scintillation counter. The compound concentration at which the enzyme-catalyzed rate was reduced by 50% (IC50) was calculated by fitting the data to a non-linear regression (sigmoidal).

NS5B570-Con1 (Delta-21) = NS5B570-Con1 (Delta-21) (Hepatitis C virus genotype 1b, UniProt Q9WMX2); experiment: biochemical; set-up: species or system HCV
[2] = molecular target: human rhinovirus 16 polymerase (HRV16pol) (Human rhinovirus 16, UniProt Q82122); experiment: biochemical; conditions: HRV16pol, 2.5 h at 30° C., mean of several independent experiments; read-out: IC50
[3] = Huh-7 HCV replicon cells, luciferase, 72 hours, read-out: EC50
[4] = Human rhinovirus 1B, HeLa-OHIO cells, 4 d at 33° C., read-out: EC50

Chain of human rhinovirus 16 polymerase (HRV16pol) (Q82122 1694-2153 limits assumed): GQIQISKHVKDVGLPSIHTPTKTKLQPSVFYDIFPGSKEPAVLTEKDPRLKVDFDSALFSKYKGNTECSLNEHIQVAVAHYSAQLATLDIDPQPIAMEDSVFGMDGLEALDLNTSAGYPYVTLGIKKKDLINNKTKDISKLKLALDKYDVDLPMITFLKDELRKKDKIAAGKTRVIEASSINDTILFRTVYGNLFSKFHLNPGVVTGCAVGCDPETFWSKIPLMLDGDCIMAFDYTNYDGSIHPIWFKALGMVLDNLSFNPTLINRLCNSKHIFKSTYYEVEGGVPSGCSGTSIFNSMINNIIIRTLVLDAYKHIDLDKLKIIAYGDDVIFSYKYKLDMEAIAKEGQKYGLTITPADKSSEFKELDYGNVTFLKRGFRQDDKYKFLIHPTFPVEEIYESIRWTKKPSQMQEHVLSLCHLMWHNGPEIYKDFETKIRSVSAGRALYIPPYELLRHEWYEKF

Structure (SMILES) | EC50 (subgenomic HCV replicon; [3]) | EC50 (Human rhinovirus 1B; [4]) | IC50 (NS5B570-Con1 (Delta-21)) | IC50 [2] | further results
C#C[C@@]1(O)[C@H](O)[C@@](CF)(COP(=O)(OCOC(=O)OC(C)C)OCOC(=O)OC(C)C)O[C@H]1n1cnc2c(N)ncnc21 [Compound 63] | 1 to 10 µM | < 1 µM |  |  | 
CC(C)OC(=O)[C@H](C)NP(=O)(OCCSC(=O)C(C)(C)CO)OC[C@@]1(CF)O[C@@H](n2ccc(=O)[nH]c2=O)[C@](C)(O)[C@@H]1O (stereo partly drawn) [Compound 283] | 1 to 10 µM | 10 to 100 µM |  |  | 
C=C[C@]1(CO)O[C@@H](n2ccc(N)nc2=O)[C@H](O)[C@@H]1O [compound 303] | 1 to 10 µM | 10 to 100 µM |  |  | 
CC(C)OC(=O)OCOP(=O)(OCOC(=O)OC(C)C)OC[C@@]1(CF)O[C@@H](n2ccc(=O)n(COC(=O)C(N)C(C)C)c2=O)[C@](C)(O)[C@@H]1O (stereo partly drawn) [Compound 52] |  |  |  |  | EC50 (subgenomic HCV replicon; Huh-7, 72 h): < 1 µM; EC50 (Human rhinovirus 1B): < 1 µM
C[C@]1(CO)O[C@@H](n2ccc(N)nc2=O)C(F)(F)[C@@H]1O [compound 300] | 10 to 100 µM | < 1 µM |  |  | 
[N-]=[N+]=NC[C@]1(CO)O[C@@H](n2ccc(N)nc2=O)[C@H](F)[C@@H]1O [Compound 106] | 10 to 100 µM | 1 to 10 µM |  |  | 
Nc1nc2c(ncn2[C@@H]2O[C@](F)(COP(=O)(O)OP(=O)(O)OP(=O)(O)O)[C@@H](O)[C@H]2F)c(=O)[nH]1 [compound 163] |  |  |  |  | IC50 [1]: < 10 µM
Nc1ncnc2c1ncn2[C@@H]1O[C@H](CO)[C@@H](O)[C@]1(O)CF [compound 301] | < 1 µM | 10 to 100 µM |  |  | 
CC(C)OC(=O)OCOP(=O)(OCOC(=O)OC(C)C)OC[C@@]1(CF)O[C@@H](n2ccc(=O)[nH]c2=O)[C@](C)(O)[C@@H]1OC(=O)CN [Compound 282] |  |  |  |  | EC50 (subgenomic HCV replicon; Huh-7, 72 h): < 1 µM; EC50 (Human rhinovirus 1B): < 1 µM
C#C[C@@]1(O)[C@H](O)[C@@](CCl)(COP(=O)(OCOC(=O)OC(C)C)OCOC(=O)OC(C)C)O[C@H]1n1cnc2c(N)ncnc21 [Compound 64] | 10 to 100 µM | 1 to 10 µM |  |  | 
COC(=O)OCOP(=O)(OCOC(=O)OC)OC[C@@]1(CF)O[C@@H](n2ccc(=O)[nH]c2=O)[C@](C)(O)[C@@H]1O [Compound 65] | 10 to 100 µM | 10 to 100 µM |  |  | 
CC(C)OC(=O)OCOP(=O)(OCOC(=O)OC(C)C)OC[C@@]1(CF)O[C@@H](n2ccc(=O)n(COP(=O)(O)O)c2=O)[C@](C)(O)[C@@H]1O [Compound 284] | 1 to 10 µM | 1 to 10 µM |  |  | 
Nc1ccn([C@@H]2O[C@H](CO)[C@@H](O)[C@]2(O)CF)c(=O)n1 [Compound 295] | 1 to 10 µM | 10 to 100 µM |  |  | 
CCOc1nc(N)nc2c1ncn2[C@@H]1O[C@](F)(COP(=O)(OCOC(=O)OC(C)C)OCOC(=O)OC(C)C)[C@@H](F)[C@@]1(C)O [Compound 57] | < 1 µM | < 1 µM |  |  | 
C#C[C@@]1(O)[C@H](O)[C@@](CCl)(COP(=O)(O)OP(=O)(O)OP(=O)(O)O)O[C@H]1n1cnc2c(N)ncnc21 [compound 245] |  |  | 10 to 100 µM | < 1 µM | 
CC(C)OC(=O)OCOP(=O)(OCOC(=O)OC(C)C)OC[C@@]1(CF)O[C@@H](n2ccc(=O)[nH]c2=O)[C@](C)(O)[C@@H]1OC(=O)[C@H](C)N [Compound 281] |  |  |  |  | EC50 (subgenomic HCV replicon; Huh-7, 72 h): < 1 µM; EC50 (Human rhinovirus 1B): < 1 µM
CCOc1nc(N)nc2c1ncn2[C@@H]1O[C@](F)(COP(=O)(N[C@@H](C)C(=O)OCC(C)(C)C)Oc2ccccc2)[C@@H](F)[C@@]1(C)O (stereo partly drawn) [Compound 21] |  |  |  |  | EC50 (subgenomic HCV replicon; Huh-7, 72 h): 1 to 10 µM; EC50 (Human rhinovirus 1B): < 1 µM
Nc1ncnc2c1ncn2[C@@H]1O[C@H](COP(=O)(O)OP(=O)(O)OP(=O)(O)O)[C@@H](O)[C@]1(O)CF [compound 278] |  |  | 1 to 10 µM | < 100 µM | 
CCOc1nc(N)nc2c1ncn2[C@@H]1O[C@](CF)(COP(=O)(N[C@@H](C)C(=O)OC2CCCCC2)Oc2ccccc2)[C@@H](O)[C@@]1(C)O (stereo partly drawn) [Compound 36] |  |  |  |  | EC50 (subgenomic HCV replicon; Huh-7, 72 h): < 1 µM; EC50 (Human rhinovirus 1B): < 1 µM
Nc1ccn([C@@H]2O[C@](CF)(COP(=O)(O)OP(=O)(O)OP(=O)(O)O)[C@@H](O)[C@]2(O)CF)c(=O)n1 [compound 258] |  |  | 10 to 100 µM | < 1 µM | 

Structure (SMILES) | EC50 (subgenomic HCV replicon; [3]) | EC50 (Human rhinovirus 1B; [4]) | IC50 (NS5B570-Con1 (Delta-21)) | IC50 [2] | further results
CC(C)C(=O)OCOP(=O)(OCOC(=O)C(C)C)OC[C@@]1(CF)O[C@@H](n2ccc(=O)[nH]c2=O)[C@](C)(O)[C@@H]1O [Compound 70] | 1 to 10 µM | 1 to 10 µM |  |  | 
CC[C@]1(O)[C@H](n2ccc(=O)[nH]c2=O)O[C@](F)(COP(=O)(O)OP(=O)(O)OP(=O)(O)O)[C@H]1O [compound 239] |  |  | 10 to 100 µM | < 10 µM | 
C=C[C@]1(COP(=O)(O)OP(=O)(O)OP(=O)(O)O)O[C@@H](n2ccc(=O)[nH]c2=O)C(F)(F)[C@@H]1O [compound 72] |  |  | 10 to 100 µM | < 100 µM | 
CC(C)(CO)C(=O)SCCOP(=O)(OCCSC(=O)C(C)(C)CO)OC[C@@]1(CF)O[C@@H](n2ccc(=O)[nH]c2=O)[C@](C)(O)[C@@H]1O [Compound 288] |  |  |  |  | EC50 (subgenomic HCV replicon; Huh-7, 72 h): 10 to 100 µM; EC50 (Human rhinovirus 1B): 10 to 100 µM
C[C@@]1(O)[C@H](O)[C@@](CF)(COP(=O)(O)OP(=O)(O)OP(=O)(O)O)O[C@H]1n1ccc2c(N)ncnc21 [compound 254] |  |  | < 1 µM | < 1 µM | 
CC#C[C@@]1(O)[C@H](O)[C@@](CF)(COP(=O)(O)OP(=O)(O)OP(=O)(O)O)O[C@H]1n1ccc(=O)[nH]c1=O [compound 252] |  |  | 1 to 10 µM | < 10 µM | 
CCOc1nc(N)nc2c1ncn2[C@@H]1O[C@](F)(COP(=O)(N[C@@H](C)C(=O)OC(C)C)Oc2ccccc2)[C@@H](F)[C@@]1(C)O (stereo partly drawn) [Compound 22] |  |  |  |  | EC50 (subgenomic HCV replicon; Huh-7, 72 h): 1 to 10 µM; EC50 (Human rhinovirus 1B): 1 to 10 µM
CC(C)OC(=O)OCOP(=O)(OCOC(=O)OC(C)C)OC[C@@]1(CF)O[C@@H](n2cnc3c(N)ncnc32)[C@](C)(O)[C@@H]1O [Compound 84] | 1 to 10 µM | < 1 µM |  |  | 
N#C[C@]1(CO)O[C@@H](n2ccc(N)nc2=O)C(F)(F)[C@@H]1O [Compound 298] | 10 to 100 µM | 1 to 10 µM |  |  | 
CC(=O)OCOP(=O)(OCOC(C)=O)OC[C@@]1(CF)O[C@@H](n2ccc(=O)[nH]c2=O)[C@](C)(O)[C@@H]1O [Compound 67] | 10 to 100 µM |  |  |  | 
CC(C)OC(=O)OCOP(=O)(N[C@@H](C)C(=O)OC(C)C)OC[C@@]1(CF)O[C@@H](n2ccc(=O)[nH]c2=O)[C@](C)(O)[C@@H]1O (stereo partly drawn) [Compound 286] | < 1 µM | 1 to 10 µM |  |  | 
C[C@@]1(Cl)[C@H](O)[C@@H](COP(=O)(O)OP(=O)(O)OP(=O)(O)O)O[C@H]1n1cnc2c(=O)[nH]c(N)nc21 [compound 246] |  |  | < 1 µM | < 1 µM | 
CC(C)(CO)C(=O)SCCOP(=O)(NCc1ccccc1)OC[C@@]1(CF)O[C@@H](n2ccc(=O)[nH]c2=O)[C@](C)(O)[C@@H]1O (stereo partly drawn) [Compound 280] | 10 to 100 µM | 10 to 100 µM |  |  | 
CC(C)OC(=O)OCOP(=O)(OCOC(=O)OC(C)C)OC[C@@]1(CCl)O[C@@H](n2ccc(=O)[nH]c2=O)[C@](C)(O)[C@@H]1O [Compound 43] | < 1 µM | 10 to 100 µM |  |  | 
Nc1ccn([C@@H]2O[C@H](COP(=O)(O)OP(=O)(O)OP(=O)(O)O)[C@@H](O)[C@]2(O)CF)c(=O)n1 [compound 276] |  |  | < 1 µM | < 10 µM | 
C=C[C@]1(CO)O[C@@H](n2ccc(N)nc2=O)C(F)(F)[C@@H]1O [Compound 75] |  | 1 to 10 µM |  |  | EC50 (subgenomic HCV replicon; Huh-7, 72 h): 10 to 100 µM
C[C@@]1(O)[C@H](O)[C@@](CN=[N+]=[N-])(COP(=O)(O)OP(=O)(O)OP(=O)(O)O)O[C@H]1n1ccc(=O)[nH]c1=O [compound 249] |  |  | 10 to 100 µM | < 100 µM | 
CCOC(=O)OCOP(=O)(OCOC(=O)OCC)OC[C@@]1(CF)O[C@@H](n2ccc(=O)n(COC(=O)C(N)C(C)C)c2=O)[C@](C)(O)[C@@H]1O (stereo partly drawn) [Compound 71] |  |  |  |  | EC50 (subgenomic HCV replicon; Huh-7, 72 h): 1 to 10 µM; EC50 (Human rhinovirus 1B): 1 to 10 µM
O=c1ccn([C@@H]2O[C@](CF)(COP(=O)(O)OP(=O)(O)OP(=O)(O)O)[C@@H](O)[C@]2(O)CF)c(=O)[nH]1 [compound 256] |  |  | 10 to 100 µM | < 10 µM | 
C[C@]1(N=[N+]=[N-])[C@H](n2ccc(N)nc2=O)O[C@](F)(COP(=O)(O)OP(=O)(O)OP(=O)(O)O)[C@H]1O [compound 208] |  |  | < 1 µM | < 10 µM | 
